Source: patent publication US7736881B2, “Antibacterial and herbicidal compounds and system for screening the same” (University of Utah Research Foundation, priority 2000, dated 2010)
“Also recorded” adds a separate entry of the source.

Experiments:
[1] = system: Strain JC7623 dxs::pCAT53-3 transformed with pLME10 (R. capsulatus dxsB in pET11-A); test: Screen for antimicrobial agent using strain JC7623 dxs::pCAT53-3 transformed with pLME10 (plate growth); type: cell-based, E. coli
[2] = system: Strain RMC25 electroporated with pLME10 (R. capsulatus dxsB in pET11-A); test: Screen for antimicrobial agent using strain RMC25 electroporated with pLME10 (plate growth); type: cell-based, S. typhimurium
[3] = LB/kan/ME/fosmidomycin, fosmidomycin ~4 μg/mL, ME 50 mg/L, after 1 day
[4] = after 2.5 days, fosmidomycin ~4 μg/mL, ME 50 mg/L

Structure (SMILES): O=CN(O)CCCP(=O)(O)O [fosmidomycin]
- growth on Plate F [1]: microcolonies
- growth on plate F compared with plate C (LB/kan/MVA/arabinose without fosmidomycin) [1]: equal
- growth on Plate E ([1]; LB/ka/IPTG/fosmidomycin, fosmidomycin ~4 μg/mL, IPTG 1 mM, after 2.5 days): no growth
- growth on Plate G [1, 3]: colonies
- growth on plate G compared with plate D (LB/kan/ME without fosmidomycin) [1, 4]: equal
- growth on Plate F [2]: colonies
- growth on plate F compared with plate C (LB/kan/MVA/arabinose without fosmidomycin) [2]: equal
- growth on Plate E ([2]; LB/kan/IPTG/fosmidomycin, fosmidomycin ~4 μg/mL, IPTG 1 mM, after 2.5 days): no growth; also recorded: growth is inhibited
- growth on Plate G [2, 3]: colonies
- growth on plate G compared with plate D (LB/kan/ME without fosmidomycin) [2, 4]: equal
